According to US20240124483A1, “Methods for the Treatment of Fibrotic Disease” (SHY Therapeutics, LLC, priority 2021, published 2024):

Assays:
[1] = Observation for mortality and signs of pain or distress, D2-mdx mice; assay type: in vivo; details: male D2-mdx mice, 100 mg/kg IP daily for 3 days
Procedure: (§1) Experimental Design: Compound 9 was suspended in 0.5% Hydroxypropyl Methylcellulose (HPMC)/0.1% Tween® 80 to a final concentration of 10 mg/mL. The dosing solutions were prepared prior to the start of the test and were stored in the dark and maintained in frozen aliquots. Doses were thawed prior to administration. Male D2-mdx (JAX Stock No: 013141) mice were sourced from The Jackson Laboratory and housed in solid bottom cages with standard chow and water ad libitum. Dosing was initiated when animals were ˜3 weeks old. Animals were dosed daily by intraperitoneal (IP) injection at 100 mg/kg or vehicle for 3 days. […] Mice were sacrificed by CO2 euthanasia approximately 6 hours after their day 3 dosing. Heart, diaphragm, quadriceps, tibialis anterior (TA) samples were collected at termination on day 3 and snap frozen. These samples were shipped on dry ice for analysis, and were stored at −80° C.

[2] = Assessment of Plasma Exposure in DBA/2J mice; assay type: in vivo, mouse
Procedure: Experimental Design: Compound 9 was suspended in 0.5% Hydroxypropyl Methylcellulose (HPMC)/0.1% Tween® 80 to a final concentration of 10 mg/mL. The dosing solutions were prepared prior to the start of the test. Male DBA/2J mice (Jackson Stock No: 000671) were housed in solid bottom cages with standard chow and water ad libitum. Dosing was initiated when animals were 7-8 weeks old. Mice were dosed at a volume of 10 mL/kg by intraperitoneal (IP) injection at 100 mg/kg or vehicle. […] Blood was collected at 15 min, 30 min, 1 h, 2 h, 4 h, 7 h, 16 h, 24 h by cardiac puncture, mixed gently 8 times and put on ice until centrifuged within 30 minutes of collection. The plasma was transferred to a 96-well plate for analysis of test compound levels.
Preparation of Standard Solutions for Calibration of UPLC: Assay: 2 mg/mL in DMSO Stock solutions of reference standard of Compound 9 was freshly prepared. 15 uL of the 2 mg/mL DMSO stock solution of Compound 9 was spiked into a vial and diluted to a final volume of 1 mL (30 ug/mL). 100 uL of the 30 ug/mL solution was mixed with 900 uL methanol (final conc. 3 ug/mL). A calibration curve was obtained from solutions having concentrations of 0.001, 0.003, 0.01, 0.03, 0.1, 0.5 and 1 ug/mL, which were prepared further dilution of the 3 ug/mL solution with methanol. An internal standard of D3-desacetylDFZ (500 ng/mL in methanol) was used. • UPLC Conditions: • Column: Waters UPLC Acquity BEH C18 Column 2.1*50, 1.7 uM • Mobile phase: A: 0.1% formic acid in water; B: 0.1% formic acid in 100% acetonitrile • Gradient:
• Temperature: 50° C. • Run time: 2 min • Injection volume=2 uL • Instrument: Waters TQ-s • Desolvation Temperature: 500° C. • Desolvation gas flow: 1000 L/hr • Capillary Cone voltage: 0.5 • Reference batch: 21-hydroxy emflaza, Compound 9
Preparation of Samples for UPLC: Protein Precipitation Method Using Millipore Hydrophilic Plate (MSRLN04) to Filter the Precipitated Protein • 1) Plasma calibration curve for positively charged compound: all in the filter plate added • a) IS-410000 in acetonitrile (0.1 ug/mL) 200 uL • b) Calibration curve in methanol: 20 uL • c) Methanol: 20 uL • d) Control mouse plasma: 20 uL • 2) Test plasma • a) IS-410000 in acetonitrile (0.1 ug/mL) 200 uL • b) Calibration curve in methanol: 20 uL • c) Test plasma: 20 uL
Placed sample on automatic shaker for at least 5 min
Centrifuged at 2000 rpm (Eppendorf 5804) for 2 min. 2-2.5 uL supernatant were injected onto LCMS system

Smad2 phosphorylation = experiment: Phospho-Smad2 analysis of muscle tissue in the D2-mdx mouse model (western blot, densitometry); assay type: in vivo
Source text: The experiment described herein was designed to monitor the effects of Compound 9 on two biomarkers related to fibrosis in D2-mdx mice. The first biomarker is Smad2 phosphorylation, and the second is the levels of serum albumin in the different muscle tissues. Fibrosis causes disruption of the fine transparent tubular sheath which envelops the fibers of skeletal muscles, this can result in various molecules from the blood and interstitial fluid leaking into myofibres. A classic example is serum albumin, which can be identified in tissue sections and considered to be hallmark of myofibre permeability.
as §1
Tissue protein extraction: Frozen tissues were placed on ice in prechilled tubes with 30 μL/mg with of ice-cold RIPA buffer+Halt™ Protease & Phosphatase Inhibitor Cocktail. Tissue was homogenized with a manual tissue homogenizer then centrifuged at 14,000 RPM at 4° C. for 15 min. Supernatant was removed and protein concentration determined by BCA assay.
Western blot protocol: Equal amounts of protein (15-50 μg) were separated by SDS-PAGE and transferred to nitrocellulose membranes (Invitrogen by Thermo Fisher Scientific). The membrane was stained with Ponceau S Stain (Boston BioProducts) to verify uniform protein loading. Membranes were blocked with 10% milk and albumin levels were assessed by incubating overnight at 4° C. with albumin antibody (Cell Signaling Technology #4929). Then the membranes were incubated with HRP-conjugated secondary antibody (Jackson Immunoresearch, West Grove, PA). Bands were incubated in Amersham ECL Prime Western Blotting Detection Reagent (GE Healthcare) and visualized using the ChemiDoc MP imaging system (Bio-Rad).
Western blot images for samples collected from heart (FIG. 2), diaphragm (FIG. 3), quadriceps (FIG. 4), and tibialis anterior (TA, FIG. 5) tissues following termination on day 3 were analyzed, providing the results summarized herein below (derived by densitometry).

[3] = male, DBA/2J, mouse, plasma, ip, 100 mg/kg, Group 5: 100 mg/kg IP, Vehicle 1, mouse plasma
[4] = D2-mdx mice, 100 mg/kg IP, 3 days
[5] = Ratio of Vehicle and Treated, 100 mg/kg IP, 3 days
[6] = Treated, 100 mg/kg IP daily for 3 days, D2-mdx mice, densitometry

With `COCCNc1nc(-c2nccn2C)nc2sc(-c3cccc(OC)c3Cl)c(-c3ccccc3)c12` [Compound 9, 6-(2-Chloro-3-methoxyphenyl)-N-(2-methoxyethyl)-2-(1-methyl-1H-imidazol-2-yl)-5-phenylthieno[2,3-d]pyrimidin-4-amine] the “findings of overt toxicity” value [1] was “No findings of overt toxicity were observed”, the “Exposures, intraperitoneal (IP) injection compared to oral dosing” value ([2]; Group 5 compared to Group 3, 100 mg/kg) was “higher” and the AUC(0-t) [2, 3] was 43000 ng·h/mL. For the same molecule, the Cmax [2, 3] was 26000 ng/mL, the half-life [2, 3] was 2.96 h and the AUC(0-inf) ([2]; male, DBA/2J, mouse, plasma, ip, 100 mg/kg, Group 5: 100 mg/kg IP, Vehicle 1, mouse plasma, read-out: AUCINFobs) was 43200 ng·h/mL. For the same molecule, the Tmax ([2]; male, DBA/2J, Group 5: 100 mg/kg IP, Vehicle 1, mouse plasma) was 0.25 h, the “Smad2 phosphorylation in the diaphragm compared to control vehicle mice” value (Smad2 phosphorylation; [4]) was “inhibition of Smad2 phosphorylation” and the “Smad2 phosphorylation in the heart” value (Smad2 phosphorylation; [4]) was “No changes were detected”. For the same molecule, the “Phospho-Smad2, Diaphragm, Average, Ratio” value (Smad2 phosphorylation; [5]) was 1.53, the “Phospho-Smad2, Diaphragm, Median, Ratio” value (Smad2 phosphorylation; [5]) was 1.54 and the “Phospho-Smad2, Quadriceps, Average, Ratio” value (Smad2 phosphorylation; [5]) was 1.10. For the same molecule, the “Phospho-Smad2, Quadriceps, Median, Ratio” value (Smad2 phosphorylation; [5]) was 0.64, the “Phospho-Smad2, Diaphragm, Average” value (Smad2 phosphorylation; [6]) was 0.18 ± 0.06 and the “Phospho-Smad2, Diaphragm, Median” value (Smad2 phosphorylation; [6]) was 0.19. For the same molecule, the “Phospho-Smad2, Quadriceps, Average” value (Smad2 phosphorylation; [6]) was 0.22 ± 0.11 and the “Phospho-Smad2, Quadriceps, Median” value (Smad2 phosphorylation; [6]) was 0.28.
